Where two headings read alike, the source gives them in different places.
Legend:
A431 (ATCC: CRL-1555) = assay: Test of cancer cell growth inhibition (SRB), A431; conditions: read-out: IC50 A431
SW-620 (ATCC: CCL-227) = assay: Test of cancer cell growth inhibition (SRB), SW-620; conditions: read-out: IC50 SW-620
SK-Br3 (ATCC: HTB-30) = assay: Test of cancer cell growth inhibition (SRB), SK-Br3; conditions: read-out: IC50 SK-Br-3
[1] = EGFR overexpressed A431, 72 hours, SRB
[2] = SW-620 not having overexpressed EGFR and Erb-B2, 72 hours, SRB
[3] = Erb-B2 overexpressed SK-Br3, 72 hours, SRB

Row | SMILES | IC50 (A431 (ATCC: CRL-1555); Homo sapiens, A-431, 72 h) [nM] | IC50 (SW-620 (ATCC: CCL-227); Homo sapiens, SW-620, 72 h) [nM] | IC50 (SK-Br3 (ATCC: HTB-30); Homo sapiens, SK-BR-3, 72 h) [nM] | IC50 (A431 (ATCC: CRL-1555); [1]) [nM] | IC50 (SW-620 (ATCC: CCL-227); [2]) [nM] | IC50 (SK-Br3 (ATCC: HTB-30); [3]) [nM]
1 | COCC(=O)NCC(=O)Nc1ccc2ncnc(Nc3ccc(OCc4cccc(F)c4)c(Cl)c3)c2c1 [Example 2-4, N-({4-[3-chloro-4-(3-fluoro-benzyloxy)-phenylamino]-quinazolin-6-ylcarbamoyl}-methyl)-2-methoxy-acetamide] | 206 | > 10000 | 245 | – | – | –
2 | C#Cc1cccc(Nc2ncnc3cc(OCCOC)c(OCCOC)cc23)c1 [Tarceva, reference compound] | 59 | > 10000 | 891 | – | – | –
3 | COCC(=O)NCC(OC(C)=O)C(=O)Nc1ccc2ncnc(Nc3ccc(OCc4cccc(F)c4)c(Cl)c3)c2c1 (stereo not drawn) [Example 39-2, acetic acid 1-{4-[3-chloro-4-(3-fluoro-benzyloxy)-phenylamino]-quinazolin-6-ylcarbamoyl}-2-(2-methoxy-acetylamino)-ethylester] | 482 | > 10000 | 45 | – | – | –
4 | C=CC(=O)N1CCCC1C(=O)Nc1ccc2ncnc(Nc3ccc(OCc4cccc(F)c4)c(Cl)c3)c2c1 (stereo not drawn) [Example 18, 1-acryloyl-pyrrolidine-2-carboxylic acid {4-[3-chloro-4-(3-fluoro-benzyloxy)-phenylamino]-quinazolin-6-yl}-amide] | 157 | > 10000 | 290 | – | – | –
5 | C=CC(=O)NCC(=O)Nc1ccc2ncnc(Nc3ccc(OCc4cccc(F)c4)c(Cl)c3)c2c1 [Example 4, N-({4-[3-chloro-4-(3-fluoro-benzyloxy)-phenylamino]-quinazolin-6-ylcarbamoyl}-methyl)-acrylamide] | 179 | > 10000 | 10 | – | – | –
6 | C=CC(=O)NCCC(=O)Nc1cc2c(Nc3ccc(OCc4cccc(F)c4)c(Cl)c3)ncnc2cc1OCCCN1CCOCC1 [Example 85-2, N-{2-[4-[3-chloro-4-(3-fluoro-benzyloxy)phenylamino]-7-(3-morpholin-4-yl-propoxy)-quinazolin-6-ylcarbamoyl]-ethyl}-acrylamide] | 12 | > 10000 | 3 | – | – | –
7 | CC(C)=CC(=O)NCCC(=O)Nc1ccc2ncnc(Nc3ccc(OCc4cccc(F)c4)c(Cl)c3)c2c1 [Example 29, 3-methyl-but-2-enonylic acid (2-{4-[3-chloro-4-(3-fluoro-benzyloxy)-phenylamino]-quinazolin-6-ylcarbamoyl}-ethyl)-amide] | – | – | – | 310 | > 10000 | 54
8 | C=CC(=O)NCCC(=O)Nc1ccc2ncnc(Nc3cncn3Cc3ccccc3)c2c1 [Example 79, N-{2-[4-(1-benzyl-1H-imidazol-5-ylamino)-quinazolin-6-ylcarbamoyl]-ethyl}-acrylamide] | 65 | > 10000 | 3 | – | – | –
9 | COCC(=O)NCC(O)C(=O)Nc1ccc2ncnc(Nc3ccc(OCc4cccc(F)c4)c(Cl)c3)c2c1 (stereo not drawn) [Example 40, N-{4-[3-chloro-4-(3-fluoro-benzyloxy)-phenylamino]-quinazolin-6-yl}-2-hydroxyl-3-(2-methoxy-acetylamino)-propionamide] | 327 | > 10000 | 84 | – | – | –
10 | C=CC(=O)NCCC(=O)Nc1ccc2ncnc(Nc3ccc(F)c(Cl)c3)c2c1 [Example 54, N-{2-[4-(3-chloro-4-fluoro-phenylamino)-quinazolin-6-ylcarbamoyl]-ethyl}-acrylamide] | 321 | > 10000 | 46 | – | – | –
11 | O=C(CN1CCOCC1)NCCCC(=O)Nc1ccc2ncnc(Nc3ccc(OCc4cccc(F)c4)c(Cl)c3)c2c1 [Example 103, N-{4-[3-chloro-4-(3-fluoro-benzyloxy)-phenylamino]-quinazolin-6-yl}-4-(2-morpholin-4-yl-acetylamino)-butyramide] | 227 | > 10000 | 42 | – | – | –
12 | COCC(=O)NCC(C)C(=O)Nc1ccc2ncnc(Nc3ccc(OCc4cccc(F)c4)c(Cl)c3)c2c1 (stereo not drawn) [Example 42-2, N-{4-[3-chloro-4-(3-fluoro-benzyloxy)-phenylamino]-quinazolin-6-yl}-3-(2-methoxy-acetylamino)-2-methyl-propionamide] | 340 | > 10000 | 102 | – | – | –
13 | CC=CC(=O)NCCC(=O)Nc1ccc2ncnc(Nc3ccc(OCc4cccc(F)c4)c(Cl)c3)c2c1 [Example 28, but-2-enonylic acid (2-{4-[3-chloro-4-(3-fluoro-benzyloxy)-phenylamino]-quinazolin-6-ylcarbamoyl}-ethyl)-amide] | – | – | – | 197 | > 10000 | 65
14 | O=C(CCl)NCCC(=O)Nc1ccc2ncnc(Nc3ccc(OCc4cccc(F)c4)c(Cl)c3)c2c1 [Example 61, 3-(2-chloro-acetylamide)-N-{4-[3-chloro-4-(3-fluoro-benzyloxy)-phenylamino]-quinazolin-6-yl}-propionamide] | – | – | – | 168 | > 10000 | 98
15 | CC(C)(C)OC(=O)NCCC(=O)Nc1ccc2ncnc(Nc3ccc4c(cnn4Cc4ccccc4)c3)c2c1 [Example 77, {2-[4-(1-benzyl-1-indazol-5-ylamino)-quinazolin-6-ylcarbamoyl]-ethyl}-carbamic acid t-butylester] | – | – | – | 208 | > 10000 | 86
16 | CC#CC(=O)NCCC(=O)Nc1ccc2ncnc(Nc3ccc(OCc4cccc(F)c4)c(Cl)c3)c2c1 [Example 27, but-2-ynoylic acid(2-{4-[3-chloro-4-(3-fluoro-benzyloxy)-phenylamino]-quinazolin-6-ylcarbamoyl}-ethyl)-amide] | – | – | – | 85 | > 10000 | 10
17 | N#CCC(=O)NCCCC(=O)Nc1ccc2ncnc(Nc3ccc(OCc4cccc(F)c4)c(Cl)c3)c2c1 [Example 93, N-{4-[3-chloro-4-(3-fluoro-benzyloxy)-phenylamino]-quinazolin-6-yl}-4-(2-cyano-acetylamino)-butyramide] | 324 | > 10000 | 33 | – | – | –
18 | C=CC(=O)NCC(C)C(=O)Nc1ccc2ncnc(Nc3ccc(OCc4cccc(F)c4)c(Cl)c3)c2c1 (stereo not drawn) [Example 44, N-(2-{4-[3-chloro-4-(3-fluoro-benzyloxy)-phenylamino]-quinazolin-6-ylcarbamoyl}-propyl)-acrylamide] | 43 | > 10000 | 6 | – | – | –
19 | COCC(=O)NCCCC(=O)Nc1ccc2ncnc(Nc3ccc(OCc4cccc(F)c4)c(Cl)c3)c2c1 [Example 87-2, N-{4-[3-chloro-4-(3-fluoro-benzyloxy)-phenylamino]-quinazolin-6-yl}-4-(2-methoxy-acetylamino)-butyramide] | 95 | > 10000 | 35 | – | – | –
20 | CCNC(=O)NCCC(=O)Nc1ccc2ncnc(Nc3ccc(OCc4cccc(F)c4)c(Cl)c3)c2c1 [Example 123, N-{4-[3-chloro-4-(3-fluoro-benzyloxy)-phenylamino]-quinazolin-6-yl}-3-(3-ethyl-ureido)-propionamide] | 240 | > 10000 | 36 | – | – | –
21 | COCC(=O)N[C@@H](Cc1ccccc1)C(=O)Nc1ccc2ncnc(Nc3ccc(OCc4cccc(F)c4)c(Cl)c3)c2c1 [Example 5-3, (2S)—N-{4-[3-chloro-4-(3-fluoro-benzyloxy)-phenylamino]-quinazolin-6-yl}-2-(2-methoxy-acetylamino)-3-phenyl-propionamide] | 315 | > 10000 | 106 | – | – | –
22 | O=C(CCNC(=O)C1=CCCC1)Nc1ccc2ncnc(Nc3ccc(OCc4cccc(F)c4)c(Cl)c3)c2c1 [Example 25, cyclopent-1-en carboxylic acid (2-{4-[3-chloro-4-(3-fluoro-benzyloxy)-phenylamino]-quinazolin-6-ylcarbamoyl}-ethyl)-amide] | 138 | > 10000 | 133 | – | – | –
23 | COCC(=O)NCCCCC(=O)Nc1ccc2ncnc(Nc3ccc(OCc4cccc(F)c4)c(Cl)c3)c2c1 [Example 115-2, 5-(2-methoxy-acetylamino)-pentanoic acid {4-[3-chloro-4-(3-fluoro-benzyloxy)-phenylamino]-quinazolin-6-yl}-amide] | 117 | > 10000 | 38 | – | – | –
24 | C=C(C)C(=O)NCCC(=O)Nc1ccc2ncnc(Nc3ccc(OCc4cccc(F)c4)c(Cl)c3)c2c1 [Example 30, N-(2-{4-[3-chloro-4-(3-fluoro-benzyloxy)-phenylamino]-quinazolin-6-ylcarbamoyl}-ethyl)-2-methyl-acrylamide] | 119 | > 10000 | 38 | – | – | –
25 | O=C(CCl)NCCCC(=O)Nc1ccc2ncnc(Nc3ccc(OCc4cccc(F)c4)c(Cl)c3)c2c1 [Example 102, 4-(2-chloro-acetylamino)-N-{4-[3-chloro-4-(3-fluoro-benzyloxy)-phenylamino]-quinazolin-6-yl}-butyramide] | 345 | > 10000 | 80 | – | – | –

Reference: patent publication US8003658B2, “Quinazoline derivatives for inhibiting cancer cell growth and method for the preparation thereof” (Hanmi Holdings Co., Ltd., priority 2004, dated 2011)
